Like-named read-outs stand apart in the source and are kept apart here. Values belong to the compound of their own block, whether it stands above or below them.
Columns and labels:
HD-MB03 cells [1] = test system: HD-MB03 cells
[2] = Toxicity measurement in tumor bearing mice; format: in vivo, mouse
[3] = test system: SJMBSHH-13-5634 intracranial PDX
[4] = test system: MYC, CYCLIN E, p27KIP1 expression in HD-MB03 cells; assay: Immunoblotting; format: cell-based, human; settings: HD-MB03, 72h, 5μM ribociclib, 0.3μM JQ1, 0.5μM paxalisib
HD-MB03 cells [5] = assay: cells; format: cell-based, human
[6] = test system: HD-MB03 intracranial xenograft; assay: Pre-clinical trial, survival of intracranial tumor bearing mice; format: in vivo, mouse
[7] = test system: G3MB and SHHMB tumor cells; assay: Single agent drug screen, statements over the panel of MB models; format: cell-based, human; settings: most potent compounds over the MB models
HD-MB03 cells [8] = settings: HD-MB03, 1h exposure
[9] = test system: MB002 intracranial xenograft; assay: Pre-clinical trial, survival of intracranial tumor bearing mice; format: in vivo, mouse; settings: 10 mg/kg
[10] = adult patients, once a day dosing; cited from earlier work

SMILES: CN(C)C(=O)c1cc2cnc(Nc3ccc(N4CCNCC4)cn3)nc2n1C1CCCC1 [ribociclib]
EC50 fold improvement (IC50 fold change of drug partner) (HD-MB03 cells [1]; Fig. 2D, 0.132μM JQ1 anchor, HD-MB03): 7.8 fold
complete blood counts (in words) ([2]; MB002-bearing mice, ribociclib 100mg/kg, JQ1 50mg/kg daily): mild leukopenia
Median survival ([3]; 100 mg/kg): 71.5 days
MYC, CYCLIN E, p27KIP1 protein expression [4]: increased expression of MYC and CYCLIN E proteins
IC20 (HD-MB03 cells [5]; Homo sapiens, HD-MB03): 5000 nM
Median survival ([6]; 100 mg/kg): 25 days

SMILES: CON(C)C(=O)N1N=C(c2cc(F)ccc2F)S[C@@]1(CCCN)c1ccccc1 [ARRY-520 /filanesib, filanesib]
IC50 (in words) [7]: picomolar to low nanomolar range

SMILES: Cc1csc(-c2nnc(Nc3ccc(Oc4ncccc4-c4ccnc(N)n4)cc3)c3ccccc23)c1 [AMG-900]
IC50 (in words) [7]: picomolar to low nanomolar range

SMILES: Cc1sc2c(c1C)C(c1ccc(Cl)cc1)=N[C@@H](CC(=O)OC(C)(C)C)c1nnc(C)n1-2 [JQ1]
IC20 (HD-MB03 cells [5]; HD-MB03, anchor concentration): 132 nM
IC50 (HD-MB03 cells [8]): > 2000 nM

SMILES: CC1(C)OCCn2c1nc1c(N3CCOCC3)nc(-c3cnc(N)nc3)nc12 [paxalisib]
Median survival [9]: 33.5 days
maximum tolerated dose [10]: 45 mg/day
body weight and body condition ([2]; MB bearing mice, paxalisib 10mg/kg alone or with ribociclib 100mg/kg): severe weight loss and had poor body condition
Median survival ([3]; 10 mg/kg): 46 days
Median survival ([6]; 10 mg/kg): 27 days

Next, values leading:

IC50 (in words) [7]: picomolar to low nanomolar range
SMILES: Cc1nc(Nc2n[nH]c3c2CN(C(=O)N[C@H](CN(C)C)c2ccccc2)C3(C)C)c2sccc2n1 [PF-03758309]

EC50 fold improvement (IC50 fold change of drug partner) (HD-MB03 cells [1]): 30.5 fold
SMILES: CC(=O)c1c(C)c2cnc(Nc3ccc(N4CCNCC4)cn3)nc2n(C2CCCC2)c1=O [palbociclib]

EC50 fold improvement (IC50 fold change of drug partner) (HD-MB03 cells [1]): 12.8 fold
SMILES: CCN1CCN(Cc2ccc(Nc3ncc(F)c(-c4cc(F)c5nc(C)n(C(C)C)c5c4)n3)nc2)CC1 [abemaciclib]

IC50 (in words) [7]: picomolar to low nanomolar range
SMILES: CCc1c2c(nc3ccc(O)cc13)-c1cc3c(c(=O)n1C2)COC(=O)[C@]3(O)CC [SN-38]
